Entries after “also recorded” stand apart in the source; their conditions may differ.
Columns and labels:
bovine β 1-AR = target: T1, bovine β 1-AR (Bos taurus, UniProt Q9TT96); test: cAMP induction in CHO cells transfected with bovine β 1-AR construct (LANCE cAMP kit); type: cell-based; conditions: 45 min, 5 mM theophylline, ND = cAMP not detected or insufficient for EC50
T1 construct: expressed in transfected cells; host or cells: Chinese hamster ovary (CHO) cells, pcDNA3.1+ vector
Protocol: (§1) Chinese Hamster Overy cells were transfected with either the bovine β 1-, β 2-, or β 3-AR constructs in pcDNA3.1+. Expression of the β-AR was confirmed by polymerase chain reaction (PCR). Thereafter, cells were grown in DMEM/Ham’s F12 media with 10% FBS and 1% penicillin/streptomycin at 37 °C under 5% CO2. Opti-plates (Perkin Elmer, Waltham, MA) were used for all experiments. For each experiment, cells were plated into 96-well tissue culture plates at 60,000 cells per well in a volume of 100 µL media. Cells were grown for 48 hr after plating prior to ligand addition and determination of cAMP.
(§2) All samples and standards were tested in duplicate for each repetition, and 4 repetitions per cell line were performed for each potential ligand tested. Controls included no treatment (media alone), 5 mM theophylline alone (an inhibitor of phosphodiesterase), 0.1 % DMSO alone, and water alone. None of the controls differed from media alone and are thus not reported. A volume of media equal to the volume of test material to be added was removed from the well just prior to stimulation. Theophylline was added in a volume of 25 µL to obtain a final concentration of 5 mM and each test molecule was delivered in 10 µL. Cells were returned to 37 °C and allowed to incubate for 45 min before media was removed and the cells lysed in 38 µL lysis buffer A. The LANCE cAMP detection kit (AD0262E) was purchased from Perkin Elmer. The LANCE assay instructions were followed for a 40 µL reaction volume with 15 µL of cell lysate. The reaction was incubated for 20 hr prior to measuring fluorescence. A standard curve was generated with increasing concentrations of cAMP, and the linear portion of the curve was used to calculate sample cAMP concentrations.

bovine β 2-AR = target: T2, bovine β 2-AR (Bos taurus, UniProt Q28044); test: cAMP induction in CHO cells transfected with bovine β 2-AR construct (LANCE cAMP kit); type: cell-based; conditions: 45 min, 5 mM theophylline, ND = cAMP not detected or insufficient for EC50
T2 construct: expressed in transfected cells; host or cells: Chinese hamster ovary (CHO) cells, pcDNA3.1+ vector
T2 sequence (Q28044 whole entry): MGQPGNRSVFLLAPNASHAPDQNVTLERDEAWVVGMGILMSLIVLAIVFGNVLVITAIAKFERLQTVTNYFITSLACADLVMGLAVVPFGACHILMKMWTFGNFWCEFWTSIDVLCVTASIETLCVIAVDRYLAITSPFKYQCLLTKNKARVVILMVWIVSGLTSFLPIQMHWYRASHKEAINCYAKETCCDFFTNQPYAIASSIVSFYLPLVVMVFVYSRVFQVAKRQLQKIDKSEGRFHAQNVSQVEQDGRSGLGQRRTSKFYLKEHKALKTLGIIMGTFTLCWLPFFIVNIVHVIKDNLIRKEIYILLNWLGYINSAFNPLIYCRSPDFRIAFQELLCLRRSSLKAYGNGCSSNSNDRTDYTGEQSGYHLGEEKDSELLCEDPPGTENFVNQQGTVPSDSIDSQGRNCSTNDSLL
Protocol: All samples and standards were tested in duplicate for each repetition, and 4 repetitions per cell line were performed for each potential ligand tested. Controls included no treatment (media alone), 5 mM theophylline alone (an inhibitor of phosphodiesterase), 0.1 % DMSO alone, and water alone. […] A volume of media equal to the volume of test material to be added was removed from the well just prior to stimulation. Theophylline was added in a volume of 25 µL to obtain a final concentration of 5 mM and each test molecule was delivered in 10 µL. […] The reaction was incubated for 20 hr prior to measuring fluorescence. […]

bovine β 3-AR = target: T3, bovine β 3-AR (Bos taurus, UniProt P46626); test: cAMP induction in CHO cells transfected with bovine β 3-AR construct (LANCE cAMP kit); type: cell-based; conditions: 45 min, 5 mM theophylline
T3 construct: expressed in transfected cells; host or cells: Chinese hamster ovary (CHO) cells, pcDNA3.1+ vector
T3 sequence (P46626 whole entry): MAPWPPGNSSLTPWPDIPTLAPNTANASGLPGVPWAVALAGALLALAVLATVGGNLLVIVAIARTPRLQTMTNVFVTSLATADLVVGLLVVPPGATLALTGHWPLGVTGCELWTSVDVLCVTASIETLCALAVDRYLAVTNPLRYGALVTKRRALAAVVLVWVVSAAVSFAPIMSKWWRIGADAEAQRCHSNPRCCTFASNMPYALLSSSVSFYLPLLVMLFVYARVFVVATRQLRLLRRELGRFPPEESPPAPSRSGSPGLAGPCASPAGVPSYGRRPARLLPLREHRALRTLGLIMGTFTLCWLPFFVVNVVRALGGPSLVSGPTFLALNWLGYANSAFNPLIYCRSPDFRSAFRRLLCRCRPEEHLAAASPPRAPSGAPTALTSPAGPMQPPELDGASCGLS
Protocol: as §1, §2

[1] = system: bovine s.c. adipose tissue; test: cAMP in s.c. adipose tissue explants (Cyclic AMP XP Assay Kit); type: cell-based, bovine (Angus cross steers)
Protocol: (§3) Fresh s.c. adipose tissue was cut into small pieces (50 to 100 mg, actual weight recorded) and i.m. adipose tissue was dissected from the LM as described previously ([Smith and Crouse, 1984]; [Miller et al., 1988]) and weighed. The s.c. and i.m. adipose samples were incubated according to 3 different sets of experimental conditions. Experiment 1: Small pieces of s.c. and i.m. adipose tissues (50 to 100 mg; 1 to 2 mm thick; [Smith and Prior, 1981]) were preincubated in 6-well tissue culture plates in a CO2/O2 incubator (NuAire model 4750 CO2 incubator, Plymouth, MN) for 30 min at 37 °C, 5% CO2 in KHB plus 5 mM glucose, 10 mM HEPES, and 0.5 mM theophylline. […] Experiment 2: The s.c. and i.m. adipose samples were preincubated in KHB plus 5 mM glucose, 10 mM HEPES, and 0.5 mM theophylline in the presence or absence of either 10 µM L-748,337 (β 3-AR antagonist) or 50 µM PRO (β-AR pan-antagonist). […] After the 30 min preincubation, either DOB (β 1-AA) or SAL (β 2-AA) was added to the culture plate wells in a concentration-dependent manner (10^–9 to 10^–4 M) for an additional 30 min. For all experiments, there were at least 3 replicate wells per treatment condition. After a total of 1-hr incubation, the adipose samples were homogenized in 1 mL cell lysis buffer (Cell Signaling Technology, Danvers, MA) with 1 mM phenymethylsulfony fluoride, and centrifuged at 14,000 × g for 30 min to remove tissue debris. The supernatant fractions were stored at −80 °C until subsequent analyses were performed.
(§4) The concentration of cAMP was determined based on the principle of competitive binding using the Cyclic AMP XP Assay Kit according to the manufacturer’s instructions. Cytosolic extracts from the adipose explants were co-incubated at room temperature for 3 hr in 96-well plates with the HRP-linked cAMP substrate coated onto an immobilized rabbit monoclonal cAMP antibody using a horizontal orbital plate shaker. After the reaction, color development was measured at 450 nm using an Epoch microplate reader (Biotek Instruments, Winooski, VT). All samples were analyzed in duplicate. A standard curve and cAMP concentrations were calculated using GrapPad Prism 6.04 software (GraphPad Software Inc., San Diego, CA).

[2] = system: bovine i.m. adipose tissue; test: cAMP in i.m. adipose tissue explants (Cyclic AMP XP Assay Kit); type: cell-based, bovine (Angus cross steers)
Protocol: as §3, §4

[3] = system: bovine s.c. adipose tissue; test: Lipolysis: glycerol release, s.c. adipose tissue explants; type: cell-based, bovine (Angus cross steers); conditions: s.c. adipose tissue, 30 min
[4] = system: bovine i.m. adipose tissue; test: Lipolysis: glycerol release, i.m. adipose tissue explants; type: cell-based, bovine (Angus cross steers); conditions: i.m. adipose tissue, 30 min
[5] = system: bovine s.c. adipose tissue; test: Lipolysis: NEFA release, s.c. adipose tissue explants; type: cell-based, bovine (Angus cross steers); conditions: s.c. adipose tissue, 30 min
[6] = system: bovine i.m. adipose tissue; test: Lipolysis: NEFA release, i.m. adipose tissue explants; type: cell-based, bovine (Angus cross steers); conditions: i.m. adipose tissue, 30 min
[7] = system: bovine i.m. adipose tissue; test: cAMP in i.m. adipose tissue explants (Cyclic AMP XP Assay Kit); type: cell-based, bovine (Angus cross steers); remark: listed apart in the source
[8] = s.c., pretreatment 1 µM LUB alone or with 10 µM L-748,337, P < 0.05

T1 sequence (Q9TT96 whole entry): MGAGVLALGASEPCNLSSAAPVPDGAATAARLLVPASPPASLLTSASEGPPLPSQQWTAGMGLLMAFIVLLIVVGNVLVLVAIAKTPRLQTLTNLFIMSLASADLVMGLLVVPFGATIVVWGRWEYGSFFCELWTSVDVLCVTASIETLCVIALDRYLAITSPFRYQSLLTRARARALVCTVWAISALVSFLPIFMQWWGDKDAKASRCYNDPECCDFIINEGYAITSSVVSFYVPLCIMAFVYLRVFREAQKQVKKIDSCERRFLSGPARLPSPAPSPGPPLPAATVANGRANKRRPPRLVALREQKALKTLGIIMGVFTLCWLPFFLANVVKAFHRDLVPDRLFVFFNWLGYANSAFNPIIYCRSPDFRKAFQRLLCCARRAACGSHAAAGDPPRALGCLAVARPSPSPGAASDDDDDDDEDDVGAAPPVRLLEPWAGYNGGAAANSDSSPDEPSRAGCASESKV

SMILES: CC(C)(Cc1ccc(Oc2ncccc2C#N)cc1)NC[C@H](O)COc1ccccc1-c1cccs1.CC(C)(Cc1ccc(Oc2ncccc2C#N)cc1)NC[C@H](O)COc1ccccc1-c1cccs1.O=C(O)/C=C/C(=O)O [LUB, lubabegron fumarate]
- EC50 (bovine β 1-AR): 190 nM
- Induction of cAMP (EC50), β 2-Construct (bovine β 2-AR): no detectible agonistic activity
- EC50 (bovine β 3-AR): 6 nM
- Effect on cAMP (in words) ([1]; s.c. adipose tissue, ligand alone, 30 min): Neither BRL-37344 nor LUB influenced cAMP or NEFA concentrations
- Effect of LUB on cAMP production in tissue pretreated with antagonist ([1]; s.c., 30 min preincubation with 10 µM L-748,337, then LUB 10^–9 to 10^–4 M): reduced by LUB in a dose–response manner
- Effect of LUB on cAMP production in tissue pretreated with antagonist ([1]; s.c., 30 min preincubation with 50 µM PRO, then LUB 10^–9 to 10^–4 M): reduced by LUB in a dose–response manner
- Adipose tissue lipolytic sensitivity (−logEC50) to β-AR ligands, s.c. ([1]; s.c., cAMP readout, mean ± SEM, n = 12 cattle, combinations: preincubation with 1 µM LUB ± 10 µM L-748,337): 7.40 ± 1.78^2
- Effect on the EC50 of the SAL cAMP response ([1]; s.c., pretreatment 1 µM LUB alone or with 10 µM L-748,337, P < 0.0001): significantly increased
- Effect on the maximal cAMP response to DOB [1, 8]: significantly diminished the maximal cAMP response
- Effect on the maximal cAMP response to SAL [1, 8]: attenuated the maximal cAMP response
- Effect on the EC50 of the cAMP response to DOB ([1]; s.c., pretreatment 1 µM LUB alone or with 10 µM L-748,337, P > 0.05): not a significant change
- Effect of LUB pretreatment on cAMP with DOB or SAL ([2]; i.m. adipose explants, 1 µM LUB): without effect
- Adipose tissue lipolytic sensitivity (−logEC50) to β-AR ligands, i.m. ([2]; i.m., cAMP readout, mean ± SEM, n = 12 cattle, combinations: preincubation with 1 µM LUB ± 10 µM L-748,337, N.A. = not possible to calculate EC50): not demonstrable
- Effect on glycerol release (in words) [3]: did not affect
- Effect on glycerol release (in words) [4]: did not affect
- Effect on NEFA release (in words) [5]: did not affect; also recorded: Neither BRL-37344 nor LUB influenced cAMP or NEFA concentrations
- Effect on NEFA release (in words) [6]: did not affect; also recorded: not influenced
- Effect of LUB on cAMP production in tissue pretreated with antagonist ([7]; 30 min preincubation with 10 µM L-748,337, then LUB): depressed cAMP production
- Effect of LUB on cAMP production in tissue pretreated with antagonist ([7]; 30 min preincubation with 50 µM PRO, then LUB): no effect
